Assay results published in patent US10611778B2, “Fused bicyclic inhibitors of menin-MLL interaction” (Janssen Pharmaceutica NV, priority 2016, dated 2020).
Where two headings read alike, the source gives them in different places.

Columns and labels:
[1] = molecular target: T1, Menin/MLL (terbium chelate-labeled menin, FITC-MBM1 peptide) (Homo sapiens, UniProt O00255, T541A); test: Menin/MLL homogenous time-resolved fluorescence (HTRF) assay; type: binding
T1 construct: Menin (a.a. 1-610-6×his tag) was labeled with terbium cryptate as follows
T1 sequence (O00255 with tags, fused parts or gaps T541A): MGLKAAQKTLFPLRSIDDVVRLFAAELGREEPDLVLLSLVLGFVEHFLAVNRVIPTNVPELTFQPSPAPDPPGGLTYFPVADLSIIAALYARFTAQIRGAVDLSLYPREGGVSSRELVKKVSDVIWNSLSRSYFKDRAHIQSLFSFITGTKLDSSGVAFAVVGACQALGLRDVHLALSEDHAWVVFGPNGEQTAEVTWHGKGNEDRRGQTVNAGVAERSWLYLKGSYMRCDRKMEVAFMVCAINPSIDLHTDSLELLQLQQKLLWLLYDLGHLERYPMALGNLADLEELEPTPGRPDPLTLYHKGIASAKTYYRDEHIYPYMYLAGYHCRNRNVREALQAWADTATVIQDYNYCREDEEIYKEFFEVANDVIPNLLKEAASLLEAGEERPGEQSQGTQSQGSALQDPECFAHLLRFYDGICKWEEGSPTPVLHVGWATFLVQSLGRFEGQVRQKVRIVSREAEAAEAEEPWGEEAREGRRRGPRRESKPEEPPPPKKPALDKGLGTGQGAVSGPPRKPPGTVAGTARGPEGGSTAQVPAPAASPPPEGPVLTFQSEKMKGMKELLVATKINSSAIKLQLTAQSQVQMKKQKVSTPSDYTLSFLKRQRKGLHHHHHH
Protocol: 3) Menin/MLL Homogenous Time-Resolved Fluorescence (HTRF) Assay
To an untreated, white 384-well microtiter plate was added 40 nL 200× test compound in DMSO and 4 μL 2× terbium chelate-labeled menin (vide infra for preparation) in assay buffer (40 mM Tris-HCl, pH 7.5, 50 mM NaCl, 1 mM DTT and 0.05% Pluronic F-127). After incubation of test compound and terbium chelate-labeled menin for 5 min at ambient temperature, 4 μL 2×FITC-MBM1 peptide (FITC-β-alanine-SARWRFPARPGT-NH2) in assay buffer was added, the microtiter plate centrifuged at 1000 rpm for 1 min and the assay mixtures incubated for 15 min at ambient temperature. The relative amount of menin⋅FITC-MBM1 complex present in an assay mixture is determined by measuring the homogenous time-resolved fluorescence (HTRF) of the terbium/FITC donor/acceptor fluorophore pair using a BMG Pherastar plate reader (ex. 337 nm/terbium em. 490 nm/FITC em. 520 nm) at ambient temperature. The degree of fluorescence resonance energy transfer (the HTRF value) is expressed as the ratio of the fluorescence emission intensities of the FITC and terbium fluorophores (F^em 520 nm/F^em 490 nm). The final concentrations of reagents in the binding assay are 100 pM terbium chelate-labeled menin, 75 nM FITC-MBM1 peptide and 0.5% DMSO in assay buffer. Dose-response titrations of test compounds are conducted using an 11 point, three-fold serial dilution scheme, starting at 31 μM.
Compound potencies were determined by first calculating % inhibition at each compound concentration according to equation 1: % inhibition=((HC−LC)−(HTRF^compound−LC))/(HC−LC))*100 (Eqn 1)
Where LC and HC are the HTRF values of the assay in the presence or absence of a saturating concentration of a compound that competes with FITC-MBM1 for binding to menin, and HTRF^compound is the measured HTRF value in the presence of the test compound. HC and LC HTRF values represent an average of at least 16 replicates per plate.
Where Bottom and Top are the lower and upper asymptotes of the dose-response curve, respectively, IC50 is the concentration of compound that yields 50% inhibition of signal and h is the Hill coefficient.
Preparation of Terbium cryptate labeling of Menin: Menin (a.a. 1-610-6×his tag) was labeled with terbium cryptate as follows. 2 mg of Menin was buffer exchanged into 1× phosphate buffered saline. 16 uM Menin was incubated with 4-fold molar excess NHS-terbium cryptate (Cisbio Bioassays, Bedford, Mass.) for 2 hours at room temperature. The labeled protein was purified away from free label by running the reaction over a Superdex 200 Increase 10/300 GL column at 0.75 ml/min. Peak fractions were collected, aliquoted and frozen at −80° C.

[2] = tested on: MV-4-11; test: Proliferation assay (spheroid assay) MV-4-11; type: cell-based, human; conditions: Homo sapiens, MV4-11, MV-4-11; averaged values over all measurements; read-out: Spheroid assay MV-4-11 (IC50)
Protocol: The anti-proliferative effect of menin/MLL protein/protein interaction inhibitor test compounds was assessed in human leukemia cell lines. The cell lines MV-4-11 and MOLM14 harbor MLL translocations and express the MLL fusion proteins MLL-AF4 and MLL-AF9, respectively, as well as the wildtype protein from the second allele. […] K562 and KG1 were used as a control cell lines containing two MLL wildtype alleles in order to exclude compounds that display general cytotoxic effects.
MV-4-11 and MOLM14 were cultured in RPMI-1640 (Sigma Aldrich) supplemented with 10% fetal bovine serum (HyClone), 2 mM L-glutamine (Sigma Aldrich) and 50 μg/ml gentamycin (Gibco). K562 were propagated in RPMI-1640 (Sigma Aldrich) supplemented with 20% fetal bovine serum (HyClone), 2 mM L-glutamine (Sigma Aldrich) and 50 μg/ml gentamycin (Gibco). KG1 were cultured in Iscove's MDM (Gibco) supplemented with 20% fetal bovine serum (HyClone), 2 mM L-glutamine (Sigma Aldrich) and 50 μg/ml gentamycin (Gibco).
In order to assess the anti-proliferative effects, 1,500 MV-4-11, 300 MOLM14, 750 K562 or 1,300 KG1 cells were seeded in 200 μl media per well in 96-well round bottom, ultra-low attachment plates (Costar, catalogue number 7007). Cell seeding numbers were chosen based on growth curves to ensure linear growth throughout the experiment. Test compounds were added at different concentrations and the DMSO content was normalized to 0.3%. Cells were incubated for 8 d at 37° C. and 5% CO2. Spheroid like growth was monitored in real-time by live-cell imaging (IncuCyteZOOM, Essenbio, 4× objective) acquiring one image every four hours for 8 d. Confluence (%) as a measure of spheroid size was determined using an integrated analysis tool.
In order to determine the cumulative effect of the test compounds over time, the area under the curve (AUC) in a plot of confluence against time was calculated. Confluence at the beginning of the experiment (t=0) was used as baseline for the AUC calculation.
Absolute IC50 values were calculated according to the following procedure: % Control=(AUC sample/AUC control)*100
AUC control=mean AUC of control values (cells without compound/DMSO as vehicle control)
A non-linear curve fit was applied using the least squares (ordinary) fit method to the plot of % control versus compound concentration. Based on this, the absolute IC50 value (half maximal inhibitory concentration of the test compound causing an anti-proliferative effect of 50% relative to the vehicle control) was calculated.

[3] = averaged values over all measurements, read-out: Menin HTRF assay (IC50)

Structure (SMILES) | IC50 [1, 3] | IC50 [2] | IC50 ([1]; individual measurements (not averaged), read-out: (3) Menin HTRF assay (IC50 (nM)))
Fc1cncc(CN2CC[C@@H]3CN(c4ncnc5sc(CC(F)(F)F)cc45)C[C@@H]3C2)c1 (single isomer, unassigned) [Compound 38] | 208 nM | 2300 nM | –
FC(F)(F)Cc1cc2c(N3C[C@H]4CCN(Cc5cncc(Cl)c5)C[C@H]4C3)ncnc2s1 (single isomer, unassigned) [Compound 43] | 97 nM | 1300 nM | –
COc1cncc(CN2CC[C@@H]3CN(c4ncnc5sc(CC(F)(F)F)cc45)C[C@@H]3C2)c1 (single isomer, unassigned) [Compound 46] | 105 nM | 1500 nM | –
CC(CN1CC[C@@H]2CN(c3ncnc4sc(CC(F)(F)F)cc34)C[C@@H]2C1)C(F)(F)F (single isomer, unassigned) [Compound 47] | 55 nM | 2300 nM | –
CC(CN1CC[C@@H]2CN(c3ncnc4sc(CC(F)(F)F)cc34)C[C@@H]2C1)c1ccccc1 (single isomer, unassigned) [Compound 49] | 44 nM | 1900 nM | –
FC(F)(F)Cc1cc2c(N3C[C@H]4CCN(Cc5cnoc5)C[C@H]4C3)ncnc2s1 (single isomer, unassigned) [Compound 51] | 62 nM | 2300 nM | –
FC(F)(F)Cc1cc2c(N3C[C@H]4CCN(Cc5cnsc5)C[C@H]4C3)ncnc2s1 (single isomer, unassigned) [Compound 52] | 41 nM | 860 nM | –
Cn1cncc1CN1CC[C@@H]2CN(c3ncnc4sc(CC(F)(F)F)cc34)C[C@@H]2C1 (single isomer, unassigned) [Compound 54] | 97 nM | 2100 nM | –
FC(F)(F)Cc1cc2c(N3C[C@H]4CCN(Cc5ccnnc5)C[C@H]4C3)ncnc2s1 (single isomer, unassigned) [Compound 55] | 75 nM | 3300 nM | –
FC(F)(F)Cc1cc2c(N3C[C@H]4CCN(Cc5cccnc5)C[C@H]4C3)ncnc2s1 (single isomer, unassigned) [Compound 56] | 41 nM | 1400 nM | –
FC(F)(F)Cc1cc2c(N3C[C@H]4CCN(CCC5CCOCC5)C[C@H]4C3)ncnc2s1 (single isomer, unassigned) [Compound 59] | 212 nM | 1800 nM | –
COc1ccncc1CN1CC[C@@H]2CN(c3ncnc4sc(CC(F)(F)F)cc34)C[C@@H]2C1 (single isomer, unassigned) [Compound 61] | 146 nM | 1700 nM | –
OCCn1cc(CN2CCC3CN(c4ncnc5sc(CC(F)(F)F)cc45)CCC32)cn1 (stereo not shown) [Compound 24] | – | – | 244 nM
CC(C)CN1CCC2CN(c3ncnc4sc(CC(F)(F)F)cc34)CCC21 (stereo not shown) [Compound 25] | 546 nM | – | –
Cn1cc(CN2CC[C@@H]3CN(c4ncnc5sc(CC(F)(F)F)cc45)C[C@@H]32)cn1 [Compound 27C] | 4530 nM | – | –
Cn1cc(CN2CC[C@H]3CN(c4ncnc5sc(CC(F)(F)F)cc45)C[C@H]32)cn1 [Compound 27D] | ~6910 nM | – | –

Other lines, results leading:

IC50 [1, 3] | IC50 [2] | IC50 ([1]; individual measurements (not averaged), read-out: (3) Menin HTRF assay (IC50 (nM))) | Structure (SMILES)
36 nM | 2200 nM | – | FC(F)(F)Cc1cc2c(N3C[C@H]4CCN(Cc5ccc(Cl)nc5Cl)C[C@H]4C3)ncnc2s1 (single isomer, unassigned) [Compound 62]
56 nM | 1200 nM | – | FC(F)(F)Cc1cc2c(N3C[C@H]4CCN(Cc5ccnc(Cl)c5)C[C@H]4C3)ncnc2s1 (single isomer, unassigned) [Compound 65]
266 nM | 2900 nM | – | Cn1ccc(CN2CC[C@@H]3CN(c4ncnc5sc(CC(F)(F)F)cc45)C[C@@H]3C2)cc1=O (single isomer, unassigned) [Compound 68]
28 nM | 1000 nM | – | OCCn1cc(CN2CC[C@@H]3CN(c4ncnc5sc(CC(F)(F)F)cc45)C[C@@H]3C2)cn1 (single isomer, unassigned) [Compound 75]
105 nM | 2900 nM | – | CC(=O)N1CCC(CN2CC[C@@H]3CN(c4ncnc5sc(CC(F)(F)F)cc45)C[C@@H]3C2)CC1 (single isomer, unassigned) [Compound 76]
103 nM | 3100 nM | – | FC(F)(F)Cc1cc2c(N3CC[C@@H]4[C@@H](CCN4Cc4ccc[nH]4)C3)ncnc2s1 (single isomer, unassigned) [Compound 85]
198 nM | 6600 nM | – | OC1(CN2CC[C@@H]3CN(c4ncnc5sc(CC(F)(F)F)cc45)C[C@@H]3C2)CCOCC1 (single isomer, unassigned) [Compound 86]
24 nM | 240 nM | – | FC(F)(F)Cc1cc2c(N3C[C@H]4CCN(Cc5ccc(C6CC6)nc5)C[C@H]4C3)ncnc2s1 (single isomer, unassigned) [Compound 89]
30 nM | 1200 nM | – | O=C(C1CCOCC1)N1CCC(CN2CC[C@@H]3CN(c4ncnc5sc(CC(F)(F)F)cc45)C[C@@H]3C2)CC1 (single isomer, unassigned) [Compound 91]
714 nM | – | – | CC(C)(C)OC(=O)N1CCC(O)(CN2CC[C@@H]3CN(c4ncnc5sc(CC(F)(F)F)cc45)C[C@@H]3C2)CC1 (single isomer, unassigned) [Compound 109]
933 nM | – | – | O=C([C@@H]1CCCN1)N1CC[C@@H]2CN(c3ncnc4sc(CC(F)(F)F)cc34)C[C@@H]2C1 [Compound 80]
985 nM | – | – | O=C([C@@H]1CCCN1)N1CC[C@H]2CN(c3ncnc4sc(CC(F)(F)F)cc34)C[C@H]2C1 [Compound 83]
